Reference: patent US6159705A, “Recombinant yeast cells for identifying receptor effectors” (Cadus Pharmaceutical Corporation, priority 1997, dated 2000)
Read-outs that look alike come from different tables or passages of the source. Where no end group is shown, it is not given here.

Columns and labels:
[1] = tested on: CY7467 yeast growth (HIS3 gene product); test: Elimination of LIRMA growth, strain CY7467 (thrombin receptor); format: cell-based, S. cerevisiae; details: CY7467, selective media
Protocol: (§1) It was determined that the yeast growth on selective media that resulted from LIRMA was eliminated by the addition of 2.5 millimolar concentrations of 3-aminotriazole (AT). AT is an inhibitor of the HIS3 gene product that serves to reduce background growth. Therefore, selection protocols aimed at the identification of novel peptide ligands for the human thrombin receptor were carried out at this concentration of AT.

[2] = tested on: CY6571 yeast growth (HIS3 gene product); test: Elimination of LIRMA growth, strain CY6571 (FPRL-1); format: cell-based, S. cerevisiae; details: CY6571, selective media
Protocol: as §1, with “additional” for “addition”, “surrogate” for “novel peptide”, “FPRL-1” for “human thrombin”

[3] = tested on: human orphan receptor FPRL-1; test: Growth on -Leu-Ura-His + 2.5 mM AT, yeast expressing FPRL-1; format: cell-based; details: yeast bearing FPRL-1-encoding plasmid (CY6571), plasmids A1 and A3-A10
From the text: The yeast strain CY1141 (MATalpha far1*1441 tbt1-1 fus1-HIS3 can 1 ste14::trp1:;LYS2 ste3*1156 gpa1(41)-Galphai2 lys2 ura3 leu2 trp1 his3) was used in the experiments that follow. CY1141 contains a pheromone inducible HIS3 gene, fus1-HIS3 integrated at the FUS1 locus and a hybrid gene encoding the first 41 amino acids of GPA1 (yeast G alpha) fused to sequence encoding human G alphai2 (lacking codons encoding the N-terminal 33 amino acids) replacing GPA1 at its chromosomal locus. The yeast STE14 gene is disrupted to lower the basal level of signaling through the pheromone response pathway. The yeast a-factor receptor gene, STE3, is deleted. CY1141 was transformed with Cadus 2311 to yield CY6571, a strain expressing the human orphan receptor, FPRL-1.
It was determined that the yeast growth on selective media that resulted from LIRMA was eliminated by the additional of 2.5 millimolar concentrations of 3-aminotriazole (AT). AT is an inhibitor of the HIS3 gene product that serves to reduce background growth. […]
CY6571 was inoculated to 10 mls of standard synthetic media (SD) lacking leucine (-Leu) and incubated overnight at 30° C. […] The OD600 of each cell suspension was determined and crude plasmid isolations were done on 8-16 OD units of cells for each pool. […]

FPRL-1 receptor = biological target: T1, FPRL-1 receptor (Homo sapiens, UniProt P25090)
T1 sequence (P25090 1-351): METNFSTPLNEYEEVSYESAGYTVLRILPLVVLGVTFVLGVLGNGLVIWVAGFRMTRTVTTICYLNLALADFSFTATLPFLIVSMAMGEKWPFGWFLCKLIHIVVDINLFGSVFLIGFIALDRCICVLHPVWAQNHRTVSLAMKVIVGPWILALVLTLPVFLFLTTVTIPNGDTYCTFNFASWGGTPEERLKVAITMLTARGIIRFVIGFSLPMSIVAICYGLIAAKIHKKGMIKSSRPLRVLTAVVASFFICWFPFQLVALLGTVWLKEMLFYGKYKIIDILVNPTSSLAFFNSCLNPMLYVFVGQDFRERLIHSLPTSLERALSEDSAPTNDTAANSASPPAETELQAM
Protocol: For verificatiin of pheromone pathway activation and quantification of the stimulation, the activity of the fus1 promoter was determined colorimetrically using a fus1-lacZ fusion in a parallel set of test strains. CY1141, described above, was used as the recipient strain for these experiments. […] Four strains (bearing the identical plasmids) were grown overnight in minimal media lacking leucine, uracil, and tryptophan, pH8.6. The overnight cultures were used to inoculate -Leu -Ura -Trp pH6.8 media and these new cultures were grown for approximately 4.5-5 hours to an OD600 of less than 0.4.

human thrombin receptor = test: Growth on -Leu-Ura-His + 2.5 mM AT, yeast expressing thrombin receptor; format: cell-based; details: yeast bearing thrombin receptor plasmid (CY7467)
From the text: The amplified product was purified by gel electrophoresis, restricted with NcoI and BamHI and ligated to NcoI and BamHI-cut CADUS 1871, a PGK promoter-driven expression vector, to yield CADUS 2260. Cloning into CADUS 1871 introduces a novel stop codon preceded by the triplet GlySerVal after the authentic carboxy terminal codon of the human thrombin receptor (threonine). In addition, an invertase signal sequence is fused to the authentic amino terminus of the receptor.
The yeast strain CY1141 (MATalpha far1*1442 tbt1-1 fus1-HIS3 can1 ste14::trp1::LYS2 ste3* 1156 gpal(41)-Galphai2 lys2 ura3 leu2 trp1 his3) was transformed with CADUS 2260 to yield strain CY7467, expressing the human thrombin receptor. CY7467 was inoculated to 10 mls of standard synthetic media (SD) lacking leucine (-Leu) and incubated overnight at 30 C. […] The OD600 of each cell suspension was determined and crude plasmid isolations were done on 8-16 OD units of cells for each pool. […]
Strain CY7467 was transformed with […] of each plasmid pool by electroporation. […] The cells from each of these plates were scraped into 5 mls of H2 O, the OD600 of the cell suspensions were determined and crude plasmid isolations were done on 8-16 OD units of yeast cells. […]

## Nc1nc[nH]n1 [3-aminotriazole]
[1]
  concentration at which LIRMA growth was eliminated: 2.5 millimolar
[2]
  concentration at which LIRMA growth was eliminated: 2.5 millimolar

## SLLWLTCRPWEAM [peptide A1]
[3]
  growth advantage on media lacking histidine: conferred a growth advantage
FPRL-1 receptor; R+ L+ (CY1141/CADUS 2311/peptide A1/CADUS 1584)
  β-galactosidase activity: 28 units
FPRL-1 receptor; R- L+ (CY1141/CADUS 1289/peptide A1/CADUS 1584)
  β-galactosidase activity: 3.5 units
FPRL-1 receptor; yeast cy1141
  stimulation over background levels of β-galactosidase: 8 fold

## VCPARYVLPGPVL [SEQ ID NO:45, peptide from random library, conferring growth via human thrombin receptor]
Human thrombin receptor
  growth advantage on media lacking histidine: conferred a growth advantage
